Here are results for eleven molecules from US6888033B1, “Anti-viral compounds” (Cytoclonal Pharmaceutics, Inc., priority 1996, dated 2005).

Series [1] concerns the target T1, Recombinant HRV-1A 3C protease (Human rhinovirus 1A, UniProt P23008).
T1 construct: HRV-1A 3C protease was produced in E. Coli [BL21(DE3)pLysS] containing the protease gene; made in house; host or cells: E. coli BL21(DE3)pLysS, T7 expression vector
Put plainly: HRV 3C Protease Inhibition Assay - HPLC Method. It is filed as biochemical. To be noted: Km value of 1.9 mM, overnight incubation.

Series [2] concerns human rhinovirus 14, strain 1059. Put plainly: Inhibition of virus in whole-cell assay (inhibition of cytopathic effect). It is filed as cell-based. As to the method: H1-HeLa cells, obtained from ATCC (F-13824, 1958-CRL) were cultured in MEM (Minimum Essential Medium) supplemented with 10% heat-inactivated fetal calf serum (FCS) by incubation at 37° C, 5% CO2 (Biological Industry, Kibbuts Beit HaEmek, Israel).
96 well plates were seeded to 90% confluency. After 12-24 hrs of incubation, the cell's monolayer was washed with phosphate-buffered saline (PBS), and the cells were subsequently infected with ten-fold dilutions in PBS (log10) of human rhinovirus 14, strain 1059, obtained from ATCC.
For each concentration of compound, three rows of wells containing various dilutions of virus were used. After 1 h of incubation at room temperature, medium containing 3% FCS and various concentrations of compound to be tested was placed in the well. After 2 days incubation at 34° C, 5% CO2, the cells were fixed by 10% formaldehyde and stained with methylene blue to determine cell viability. The cytopathic effect of non-viable cells was arbitrarily set to 100% for the untreated viral infection, so that the effect of each compound on cell viability was determined according to this baseline. Each experiment was performed 5 times for each compound, and the inhibition of cytopathic effect (ICE50) for inhibition of viral activity was calculated. […] ICE50 refers to the concentration in which 50% of the cells remain viable after viral infection.
(In general: Damage to the host cells serves as the signal in cytopathic effect assays.)

A further series relates to H1-HeLa cells. Nature of the series: 50% toxic dose (TD50). It is filed as cell-based.
In the next series the target is T2, HRV 3C protease (Human rhinovirus 1A, UniProt P23008).
T2 construct: 2.5 μg of HRV 3C protease
T2 sequence (P23008 1515-1697): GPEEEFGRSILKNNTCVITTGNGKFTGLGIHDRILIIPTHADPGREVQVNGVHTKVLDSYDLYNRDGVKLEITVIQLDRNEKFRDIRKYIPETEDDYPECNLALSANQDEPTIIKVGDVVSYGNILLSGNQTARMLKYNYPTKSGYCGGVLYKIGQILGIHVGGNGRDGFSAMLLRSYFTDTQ
Put plainly: Inhibition of 3C protease cleavage activity, peptide cleavage assay with reverse phase HPLC. It is filed as biochemical. Here is the method:
Next, the inhibition of 3C protease activity was measured by using a cleavage assay. […] Specific cleavage of this peptide [(N-Ac)Arg-Ala-Glu-Leu-Gln-Gly-Pro-[…]-Asp-Glu] (SEQ ID NO:2) by HRV 3C provided two pentapeptides. In a typical experiment 80 μg of peptide, dissolved in 100 mM TRIS (pH 8) and 100 mM NaCl, was incubated at 35° C. with 2.5 μg of HRV 3C protease with and without DIF1, to give a total volume of 30 μl. In both cases 3C was suspended in a buffered solution (40 mM Tris-HCL, pH 8.0, 100 mM, NaCl, 1 mM DTT, 1 mM EDTA), 2.5 mg of DIF1 (dissolved in 1 ml of ethanol) was used, corresponding to a concentration of 270 μM. Inhibitory effects due to the organic solvent were not observed; nevertheless, 10 μl of ethanol were added to the control. Aliquots were drawn at short intervals (within ca. 40 min.) and quenched with an equal volume of 1% TFA in Methanol (HPLC grade). […]
The degree of 3C protease inhibition by DIF1 was found by integration of peak areas under the 280 nm absorption curve. The degree of cleavage was calculated as the ratio of peak areas corresponding to peptide alone and peptide plus GPYDE (SEQ ID NO:3) product. Quantification was based on the initial, linear portion of the absorption curve, which represents less than 20% cleavage.

The next series has as its system elastase. Put plainly: Elastase cleavage activity (specificity). It counts as biochemical. To be noted: 50 mM DIF1. As to the method: (§1) The specificity of DIF1 as an enzyme inhibitor was tested using cleavage assays for a number of other enzymes, including elastase, cathepsin B, chymotripsin, papain and ficin A. Elastase was particularly important because it is present in […], so that inhibition of its activity could potentially be highly toxic. […] The experimental method was as follows.
The cleavage activity of elastase was determined in 0.1 M Tris-HCl pH 7.0 buffer containing 20 μg/ml enzyme and its synthetic substrate. N-succinyl-Ala-Ala-Ala-p-nitroanilide.

A further series has as its target cathepsin B (Homo sapiens, UniProt P07858). Nature of the series: Cathepsin B cleavage activity (specificity). It is filed as biochemical. The following applies: all DIF1 concentrations tested. As to the method:
as §1
(§2) The cleavage activity for cathepsin B was assayed according to the method of Bajowski an Frankfater (Anal. Biochem. 68:119 (1975)). Chymotripsin was assayed in 0.1M KPi buffer pH 7.0 containing 0.04 μg/ml enzyme and 200 μM N-benzyl-L-tryosine ethyl ester (from a 20 mM stock in dimethyl sulfoxide). The reaction was monitored by spectrophotometry at 256 nm.

In the next series the target is chymotripsin (Bos taurus, UniProt P00766). Nature of the series: Chymotripsin assay (specificity). It is filed as biochemical. To be noted: all DIF1 concentrations tested. As to the method:
as §1, §2

The target of a further series is T3, papain (Carica papaya, UniProt P00784).
T3 sequence (P00784 134-345): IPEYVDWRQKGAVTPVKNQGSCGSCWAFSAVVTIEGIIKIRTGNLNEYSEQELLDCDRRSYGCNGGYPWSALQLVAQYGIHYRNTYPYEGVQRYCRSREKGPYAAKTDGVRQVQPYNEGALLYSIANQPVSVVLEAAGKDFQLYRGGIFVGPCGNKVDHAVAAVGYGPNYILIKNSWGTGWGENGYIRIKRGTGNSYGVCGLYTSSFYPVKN
Put plainly: Papain assay (specificity). It is filed as biochemical. To be noted: all DIF1 concentrations tested. Here is the method: as §1
(§3) Papain and Ficin were incubated for one hour in an activation solution containing 0.1 M KPi buffer pH 7.0. 0.5 mM cysteine, 20 mM EDTA and 65 μg enzyme. The assays were carried out by adding 20 μl aliquots from the activation mix to 0.1 M KPi buffer pH 7.0, containing 12.5 nM N-CBZ-p-Nitrophenyl ester. The reaction was monitored by spectrphotometry at 405 nm.

In another series the test system is ficin A. Nature of the series: Ficin assay (specificity). It counts as biochemical. The following applies: all DIF1 concentrations tested. As to the method:
as §1, §3

Structures are written as SMILES. Where two headings read alike, the source gives them in different places.

T1 sequence (P23008 1515-1697): as the sequence (P23008 1515-1697) above

In general, Ki refers to the equilibrium dissociation constant of an inhibitor or competing ligand from its target. Consider `CCCCCC(=O)c1c(O)c(Cl)c(O)c(Cl)c1OC` [Compound 16, 1-(3,5-dichloro-2,4-dihydroxy-6-methoxyphenyl)-hexan-1-one], for which the inhibitory constant (Ki) in series [1] turned out to be 390 ± 30 µM. For the same molecule, the IC50 in series [2] (Rhinovirus B, H1-HeLa cells, HRV 14, Table 2, Formula V, read-out: IC50) stood at 3 µM. The molecule further had a TD50 with H1-HeLa cells of 40.

As to `CC(=O)c1c(O)c(Cl)cc(Cl)c1O` [Compound 109], the IC50 in series [2] (H1-HeLa cells, HRV 14, 2 days at 34° C, Table 1, Formula IV, read-out: ICE50) was 1250 µM. The “TD50” value in the series with H1-HeLa cells came to 5000 µM.

In the case of `CCCCCC(=O)c1c(O)c(Cl)c(OC)c(Cl)c1O` [Compound 15, 1-(3,5-dichloro-2,6-dihydroxy-4-methoxyphenyl)-hexan-1-one], the Ki at HRV 3C protease (HRV 3C protease, N-acetylated 10-mer peptide substrate, 35° C.) came to 220 µM; in series [1], 460 ± 80 µM. Besides, on HRV 3C protease (in the presence of 270 μM DIF1), the “rate of substrate cleavage” value was “decreased significantly”. In addition, the “inhibition of cleavage activity of elastase” value in the series on elastase is “did not inhibit”. For the same molecule, at cathepsin B, the “effect on proteolytic activity of cathepsin B” value is “not to effect”. Also, the “effect on proteolytic activity of chymotripsin” value on chymotripsin is “not to effect”. Further, the “effect on proteolytic activity of papain” value on papain is on record as “not to effect”. Besides, the “effect on proteolytic activity of ficin A” value with ficin A is on record as “not to effect”. Further, in [2] (Rhinovirus B, H1-HeLa), the IC50 came to 7.5 µM. Further, the TD50 in the series on H1-HeLa cells stood at 30.

For orientation: melting point means the temperature of the solid-liquid transition. `COc1cc(O)c(Cl)c(O)c1C(C)=O` [Compound 25] came in with a melting point of 187.5 to 189 °C. For the same molecule, in series [1], the Ki stood at 3000 ± 1500 µM. Further, in [2] (Rhinovirus B, 48 h, H1-HeLa cells, HRV 14, 2 days at 34° C, Table 1, Formula IV, read-out: ICE50), the IC50 was determined as 11 µM. Moreover, the “TD50” value in the series with H1-HeLa cells (human) came to 22 µM.

In the series with H1-HeLa cells, `O=C(CCc1ccc(O)cc1)c1c(O)cc(O)cc1O` [Formula VIII, Z′=OH, Y′=H, R3=OH, Y=H, phloretin] gave a TD50 of 160.

As to `CCCCCC(=O)c1c(O)c(Cl)c(O)c(Cl)c1O` [Compound 20], in series [1], the Ki is 460 ± 60 µM. For the same molecule, in the series on H1-HeLa cells, the TD50 was 1875.

For `COCCC(O)CC(O)C(=O)c1ccccc1` (stereo not drawn) [Compound 108, 2,4-dihydroxy-6-methoxyhexanophenone], the melting point is 109 °C.

Turning to `COc1cc(O)cc(O)c1C(C)=O` [Compound 23, 2,4-dihydroxy-6-methoxy acetophenone], the “TD50” value with H1-HeLa cells (Table 1, Formula IV) turned out to be 220 µM.

With `COC(CCO)CC(O)C(=O)c1ccccc1` (stereo not drawn) [Compound 107, 2,6-dihydroxy-4-methoxyhexanophenone], the melting point stood at 121 °C.

As for `COc1ccc(C(=O)c2ccccc2O)c(O)c1` [Compound 1, Dioxybenzone, reference compound], in [1], the inhibition constant Ki came out at 4700 ± 900 µM.

Consider `O=C1C=CC(=O)c2c(O)cccc21` [Compound 3, Juglone, reference compound], for which, in series [1], the inhibition constant (Ki) was determined as 630 ± 70 µM.
